# Experiments:
# Assay in all cases: relative viability (nuclei count vs DMSO), 5 days (fraction); higher = more cells survive
# NCI-H727 = system: NCI-H727
# Procedure, shortened: (§1)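 Lung cancer cell lines were seeded in 1536-well plates and dosed by pin tool the next day, with either a single drug or a fixed anchor-drug dose combined with five library-drug doses (not always all listed) spaced in √10 steps. Five days later, one step fixed the cells and stained their nuclei (final 0.05% Triton X-100, 1% formaldehyde, 1 ug/ml Hoechst), and nuclei were counted on 4× images. Relative viability is the nuclei count in treated wells divided by the count in vehicle wells, and each value is the median of duplicate plates.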
# COR-L 105 = system: COR-L 105
# Procedure, shortened: as §1
# ABC-1 = system: ABC-1
# Procedure, shortened: as §1
# HCC-366 = system: HCC-366
# Procedure, shortened: as §1
# NCI-H2009 = system: NCI-H2009
# Procedure, shortened: as §1
# HARA = system: HARA
# Procedure, shortened: as §1
# LU99A = system: LU99A
# Procedure, shortened: as §1
# LK-2 = system: LK-2
# Procedure, shortened: as §1
# NCI-H2170 = system: NCI-H2170
# Procedure, shortened: as §1
# NCI-H1437 = system: NCI-H1437
# Procedure, shortened: as §1
# EKVX = system: EKVX
# Procedure, shortened: as §1
# NCI-H1650 = system: NCI-H1650
# Procedure, shortened: as §1
# BEN = system: BEN
# Procedure, shortened: as §1
# 201T = system: 201T
# Procedure, shortened: as §1
# PC-14 = system: PC-14
# Procedure, shortened: as §1
# NCI-H661 = system: NCI-H661
# Procedure, shortened: as §1
# CAL-12T = system: CAL-12T
# Procedure, shortened: as §1
# NCI-H3122 = system: NCI-H3122
# Procedure, shortened: as §1
# COR-L23 = system: COR-L23
# Procedure, shortened: as §1
# NCI-H1666 = system: NCI-H1666
# Procedure, shortened: as §1
# NCI-H838 = system: NCI-H838
# Procedure, shortened: as §1
smiles,measurement,setting,value
Oc1nc(-c2ccc(C(F)(F)F)cc2)nc2c1CSCC2 [XAV939] + CS(=O)(=O)CCNCc1ccc(-c2ccc3ncnc(Nc4ccc(OCc5cccc(F)c5)c(Cl)c4)c3c2)o1 [Lapatinib] (partner 2 µM),relative viability,NCI-H727; first compound 0.08 µM,1.14
same,relative viability,NCI-H727; first compound 0.253 µM,0.589
same,relative viability,NCI-H727; first compound 0.8 µM,0.759
same,relative viability,NCI-H727; first compound 2.53 µM,0.877
same,relative viability,COR-L 105; first compound 0.08 µM,0.426
same,relative viability,COR-L 105; first compound 0.253 µM,0.347
same,relative viability,COR-L 105; first compound 0.8 µM,0.37
same,relative viability,COR-L 105; first compound 2.53 µM,0.301
same,relative viability,ABC-1; first compound 0.08 µM,1.34
same,relative viability,ABC-1; first compound 0.253 µM,1.08
same,relative viability,ABC-1; first compound 0.8 µM,1.26
same,relative viability,ABC-1; first compound 2.53 µM,0.657
same,relative viability,HCC-366; first compound 0.08 µM,1.23
same,relative viability,HCC-366; first compound 0.253 µM,0.861
same,relative viability,HCC-366; first compound 0.8 µM,1.01
same,relative viability,HCC-366; first compound 2.53 µM,0.96
same,relative viability,NCI-H2009; first compound 0.08 µM,1.08
same,relative viability,NCI-H2009; first compound 0.253 µM,0.819
same,relative viability,NCI-H2009; first compound 0.8 µM,0.842
same,relative viability,NCI-H2009; first compound 2.53 µM,0.771
same,relative viability,HARA; first compound 0.08 µM,0.73
same,relative viability,HARA; first compound 0.253 µM,0.419
same,relative viability,HARA; first compound 0.8 µM,0.402
same,relative viability,HARA; first compound 2.53 µM,0.606
same,relative viability,LU99A; first compound 0.08 µM,0.964
same,relative viability,LU99A; first compound 0.253 µM,0.851
same,relative viability,LU99A; first compound 0.8 µM,0.995
same,relative viability,LU99A; first compound 2.53 µM,0.939
same,relative viability,LK-2; first compound 0.08 µM,0.979
same,relative viability,LK-2; first compound 0.253 µM,0.981
same,relative viability,LK-2; first compound 0.8 µM,1.04
same,relative viability,LK-2; first compound 2.53 µM,0.928
same,relative viability,NCI-H2170; first compound 0.08 µM,0.259
same,relative viability,NCI-H2170; first compound 0.253 µM,0.263
same,relative viability,NCI-H2170; first compound 0.8 µM,0.267
same,relative viability,NCI-H2170; first compound 2.53 µM,0.261
same,relative viability,NCI-H1437; first compound 0.08 µM,0.938
same,relative viability,NCI-H1437; first compound 0.253 µM,0.709
same,relative viability,NCI-H1437; first compound 0.8 µM,0.772
same,relative viability,NCI-H1437; first compound 2.53 µM,0.639
same,relative viability,EKVX; first compound 0.08 µM,0.193
same,relative viability,EKVX; first compound 0.253 µM,0.181
same,relative viability,EKVX; first compound 0.8 µM,0.162
same,relative viability,EKVX; first compound 2.53 µM,0.125
same,relative viability,NCI-H1650; first compound 0.08 µM,0.762
same,relative viability,NCI-H1650; first compound 0.253 µM,0.726
same,relative viability,NCI-H1650; first compound 0.8 µM,0.836
same,relative viability,NCI-H1650; first compound 2.53 µM,0.454
same,relative viability,BEN; first compound 0.08 µM,0.656
same,relative viability,BEN; first compound 0.253 µM,0.547
same,relative viability,BEN; first compound 0.8 µM,0.584
same,relative viability,BEN; first compound 2.53 µM,0.435
same,relative viability,201T; first compound 0.08 µM,1.08
same,relative viability,201T; first compound 0.253 µM,0.866
same,relative viability,201T; first compound 0.8 µM,0.948
same,relative viability,201T; first compound 2.53 µM,0.896
same,relative viability,PC-14; first compound 0.08 µM,0.301
same,relative viability,PC-14; first compound 0.253 µM,0.307
same,relative viability,PC-14; first compound 0.8 µM,0.262
same,relative viability,PC-14; first compound 2.53 µM,0.266
same,relative viability,NCI-H661; first compound 0.08 µM,0.553
same,relative viability,NCI-H661; first compound 0.253 µM,0.482
same,relative viability,NCI-H661; first compound 0.8 µM,0.595
same,relative viability,NCI-H661; first compound 2.53 µM,0.372
same,relative viability,CAL-12T; first compound 0.08 µM,0.729
same,relative viability,CAL-12T; first compound 0.253 µM,0.664
same,relative viability,CAL-12T; first compound 0.8 µM,0.525
same,relative viability,CAL-12T; first compound 2.53 µM,0.426
same,relative viability,NCI-H3122; first compound 0.08 µM,1.01
same,relative viability,NCI-H3122; first compound 0.253 µM,0.95
same,relative viability,NCI-H3122; first compound 0.8 µM,1.01
same,relative viability,NCI-H3122; first compound 2.53 µM,1.01
same,relative viability,COR-L23; first compound 0.08 µM,1.04
same,relative viability,COR-L23; first compound 0.253 µM,0.924
same,relative viability,COR-L23; first compound 0.8 µM,0.932
same,relative viability,COR-L23; first compound 2.53 µM,0.89
same,relative viability,NCI-H1666; first compound 0.08 µM,0.571
same,relative viability,NCI-H1666; first compound 0.253 µM,0.415
same,relative viability,NCI-H1666; first compound 0.8 µM,0.442
same,relative viability,NCI-H1666; first compound 2.53 µM,0.353
same,relative viability,NCI-H838; first compound 0.08 µM,1.13
same,relative viability,NCI-H838; first compound 0.253 µM,0.918
same,relative viability,NCI-H838; first compound 0.8 µM,0.949
same,relative viability,NCI-H838; first compound 2.53 µM,0.767
